# According to patent US20170327598A1, “SINGLE DOMAIN ANTIBODIES DIRECTED AGAINST INTRACELLULAR ANTIGENS” (SINGH MOLECULAR MEDICINE, LLC, priority 2014, published 2017):
# Values joined by “and” are separate entries in the source; they are usually repeats but may differ in a detail not shown here. Identical values can stand only once. Numbered stars: 1 amine (or outer) side, 2 acyl side, 3 side chain; on linkers, the order of the positions; unused ones are H or OH. Bridge positions count the residues as written; N and C are the ends. Square brackets hold non-standard residues; d marks the D form. Peptide text beside a SMILES is read from it. I, II: the chains in the order shown. Actinocin(9to1) = Cc1c2oc3c(C)ccc(C(=O)[*:1])c3nc-2c(C(=O)[*:2])c(N)c1=O; NMeV = CN[C@H](C(=O)O)C(C)C; Sar = CNCC(=O)O
# Test system: L929 cells
# Test: Percent toxicity of control wells in L929 cells
# Type: cell-based, mouse
# Details: Actinomycin D only (no TNFα), sample replicates
compound,measurement,setting,value
"Cc1c2oc3c(C)ccc(C(=O)N[C@@H]4C(=O)N[C@H](C(C)C)C(=O)N5CCC[C@H]5C(=O)N(C)CC(=O)N(C)[C@@H](C(C)C)C(=O)O[C@@H]4C)c3nc-2c(C(=O)N[C@@H]2C(=O)N[C@H](C(C)C)C(=O)N3CCC[C@H]3C(=O)N(C)CC(=O)N(C)[C@@H](C(C)C)C(=O)O[C@@H]2C)c(N)c1=O [Actinomycin D] (I: T[dV]P[Sar][NMeV] / II: T[dV]P[Sar][NMeV]; ester I:1-I:C, II:1-II:C; linker I:N-II:N via Actinocin(9to1))",% Toxicity,Assay 1,18.6% and 5.4% and 2.3% and 3.5% and 0% (8×)
same,% Toxicity,Assay 2,2.3% and 0% (4×) and 10.4% and 0.4%
